Experimental data: patent US12723063B2, “GIPR-agonist compounds” (Eli Lilly and Company, priority 2019, dated 2026)
*1 amine or outer side, *2 acyl side, *3 side chain or, on linkers, in order; H or OH if unused. Where a SMILES comes first, the peptide text is derived from it. Side-chain parts run from the residue outwards. [ ]: non-standard residue; d: D form. The star is where a group is joined. C20 diacid = O=C(O)CCCCCCCCCCCCCCCCCCC(=O)*; C18 diacid = O=C(O)CCCCCCCCCCCCCCCCC(=O)*; αMePhe(2-F) = C[C@](N)(Cc1ccccc1F)C(=O)O; γGlu = O=C(O)[C@H](CCC(=O)[*:2])N[*:1]; 4Pal = N[C@@H](Cc1ccncc1)C(=O)O; αMeL = CC(C)C[C@](C)(N)C(=O)O; AEEA = NCCOCCOCC(=O)O; Aib = CC(C)(N)C(=O)O

Target: T1, human GcgR (Homo sapiens, UniProt P47871)
T1 construct: expressed in transfected cells; crude membranes
Test: [125I]-Glucagon binding, SPA with WGA beads, 0.1% bacitracin
Details: geometric mean, read-out: hGcgR Ki
Summary of the method: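 SPA competition binding with WGA beads on crude membranes from HEK293 cells stably expressing hGcgR. Buffer: 25 mM HEPES pH 7.4, 2.5 mM CaCl2, 1 mM MgCl2, 0.1% bacitracin, 0.003% Tween-20; 10-point 3-fold dilutions, NSB with 1 μM Gcg.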

T1 sequence (P47871 26-477): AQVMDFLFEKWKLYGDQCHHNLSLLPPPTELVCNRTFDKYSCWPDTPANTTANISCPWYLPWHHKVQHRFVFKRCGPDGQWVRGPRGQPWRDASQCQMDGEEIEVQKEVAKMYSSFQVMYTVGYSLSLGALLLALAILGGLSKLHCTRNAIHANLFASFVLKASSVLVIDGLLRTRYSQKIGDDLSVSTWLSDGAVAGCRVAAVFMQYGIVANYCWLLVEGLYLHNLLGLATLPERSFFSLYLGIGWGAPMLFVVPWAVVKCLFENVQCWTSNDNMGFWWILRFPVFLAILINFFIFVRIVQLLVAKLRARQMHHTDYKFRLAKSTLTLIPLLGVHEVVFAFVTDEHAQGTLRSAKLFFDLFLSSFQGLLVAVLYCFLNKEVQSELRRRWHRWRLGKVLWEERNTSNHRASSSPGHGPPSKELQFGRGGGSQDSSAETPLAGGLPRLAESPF

CC[C@H](C)[C@H](NC(=O)[C@H](CC(C)C)NC(=O)[C@@H](NC(=O)CNC(=O)[C@H](CCC(=O)O)NC(=O)C(C)(C)NC(=O)[C@@H](N)Cc1ccc(O)cc1)[C@@H](C)O)C(=O)N[C@@H](CO)C(=O)N[C@@H](CC(=O)O)C(=O)N[C@@H](Cc1ccc(O)cc1)C(=O)N[C@@H](CO)C(=O)N[C@H](C(=O)N[C@@](C)(CC(C)C)C(=O)N[C@@H](CC(C)C)C(=O)N[C@@H](CC(=O)O)C(=O)N[C@@H](CCCCN)C(=O)N[C@@H](CCCCNC(=O)COCCOCCNC(=O)COCCOCCNC(=O)CC[C@H](NC(=O)CCCCCCCCCCCCCCCCCCC(=O)O)C(=O)O)C(=O)N[C@@H](Cc1c[nH]cn1)C(=O)N[C@@H](CCC(N)=O)C(=O)NC(C)(C)C(=O)N[C@@H](CCC(=O)O)C(=O)N[C@@H](Cc1ccccc1)C(=O)N[C@H](C(=O)N[C@@H](CCC(=O)O)C(=O)N[C@@H](Cc1ccc(O)cc1)C(=O)N[C@@H](CC(C)C)C(=O)N[C@@H](CC(C)C)C(=O)N[C@@H](CCC(=O)O)C(=O)NCC(=O)NCC(=O)N1CCC[C@H]1C(=O)N[C@@H](CO)C(=O)N[C@@H](CO)C(=O)NCC(=O)N[C@@H](C)C(=O)N1CCC[C@H]1C(=O)N1CCC[C@H]1C(=O)N1CCC[C@H]1C(=O)N[C@@H](CO)C(N)=O)C(C)C)[C@@H](C)CC [Example 73] (H-Y[Aib]EGTLISDYSI[αMeL]LDKK([AEEA-AEEA-γGlu-C20 diacid])HQ[Aib]EFVEYLLEGGPSSGAPPPS-NH2) gave a Ki of 292 nM.
In the case of CC[C@H](C)[C@H](NC(=O)[C@H](CO)NC(=O)[C@H](Cc1ccc(O)cc1)NC(=O)[C@H](CC(=O)O)NC(=O)[C@H](CO)NC(=O)[C@@H](NC(=O)[C@](C)(Cc1ccccc1F)NC(=O)[C@@H](NC(=O)CNC(=O)[C@H](CCC(=O)O)NC(=O)C(C)(C)NC(=O)[C@@H](N)Cc1ccc(O)cc1)[C@@H](C)O)[C@@H](C)CC)C(=O)N[C@@H](CC(C)C)C(=O)N[C@@H](CC(C)C)C(=O)N[C@@H](CC(=O)O)C(=O)N[C@@H](CCCCN)C(=O)N[C@H](C(=O)N[C@@H](Cc1c[nH]cn1)C(=O)N[C@@H](CCC(N)=O)C(=O)NC(C)(C)C(=O)N[C@@H](CC(=O)O)C(=O)N[C@@H](Cc1ccccc1)C(=O)N[C@H](C(=O)N[C@@H](CCC(=O)O)C(=O)N[C@@H](Cc1ccncc1)C(=O)N[C@@H](CCCCNC(=O)COCCOCCNC(=O)COCCOCCNC(=O)CC[C@H](NC(=O)CCCCCCCCCCCCCCCCCCC(=O)O)C(=O)O)C(=O)N[C@@H](CC(C)C)C(=O)N[C@@H](CCC(=O)O)C(=O)N[C@@H](CCC(N)=O)C(=O)NCC(=O)N1CCC[C@H]1C(=O)N[C@@H](CO)C(=O)N[C@@H](CO)C(=O)NCC(=O)N[C@@H](C)C(=O)N1CCC[C@H]1C(=O)N1CCC[C@H]1C(=O)N1CCC[C@H]1C(=O)N[C@@H](CO)C(N)=O)C(C)C)[C@@H](C)CC [Example 121] (H-Y[Aib]EGT[αMePhe(2-F)]ISDYSILLDKIHQ[Aib]DFVE[4Pal]K([AEEA-AEEA-γGlu-C20 diacid])LEQGPSSGAPPPS-NH2), the Ki is reported as 94.9 nM.
CC[C@H](C)[C@H](NC(=O)[C@H](CO)NC(=O)[C@H](Cc1ccc(O)cc1)NC(=O)[C@H](CC(=O)O)NC(=O)[C@H](CO)NC(=O)[C@@H](NC(=O)[C@H](Cc1ccccc1)NC(=O)[C@@H](NC(=O)CNC(=O)[C@H](CCC(=O)O)NC(=O)[C@@H](C)NC(=O)[C@@H](N)Cc1ccc(O)cc1)[C@@H](C)O)[C@@H](C)CC)C(=O)N[C@@H](CC(C)C)C(=O)N[C@@H](CC(C)C)C(=O)N[C@@H](CC(=O)O)C(=O)N[C@@H](CCCCN)C(=O)N[C@@H](CCCCNC(=O)COCCOCCNC(=O)COCCOCCNC(=O)CC[C@H](NC(=O)CCCCCCCCCCCCCCCCC(=O)O)C(=O)O)C(=O)N[C@@H](C)C(=O)N[C@@H](CCC(N)=O)C(=O)NC(C)(C)C(=O)N[C@@H](CCC(=O)O)C(=O)N[C@@H](Cc1ccccc1)C(=O)N[C@H](C(=O)N[C@@H](CCC(=O)O)C(=O)N[C@@H](Cc1c[nH]c2ccccc12)C(=O)N[C@@H](CC(C)C)C(=O)N[C@@H](CC(C)C)C(=O)N[C@@H](C)C(=O)NCC(=O)NCC(=O)N1CCC[C@H]1C(=O)N[C@@H](CO)C(=O)N[C@@H](CO)C(=O)NCC(=O)N[C@@H](C)C(=O)N1CCC[C@H]1C(=O)N1CCC[C@H]1C(=O)N1CCC[C@H]1C(=O)N[C@@H](CO)C(N)=O)C(C)C [Example 29] (H-Y[dA]EGTFISDYSILLDKK([AEEA-AEEA-γGlu-C18 diacid])AQ[Aib]EFVEWLLAGGPSSGAPPPS-NH2) gave a Ki of 133 nM.
Compound CC[C@H](C)[C@H](NC(=O)[C@H](CO)NC(=O)[C@H](Cc1ccc(O)cc1)NC(=O)[C@H](CC(=O)O)NC(=O)[C@H](CO)NC(=O)[C@@H](NC(=O)[C@H](Cc1ccccc1)NC(=O)[C@@H](NC(=O)CNC(=O)[C@H](CCC(=O)O)NC(=O)[C@@H](C)NC(=O)[C@@H](N)Cc1ccc(O)cc1)[C@@H](C)O)[C@@H](C)CC)C(=O)N[C@@H](CC(C)C)C(=O)N[C@@H](CC(C)C)C(=O)N[C@@H](CC(=O)O)C(=O)N[C@@H](CCCCN)C(=O)N[C@@H](CCCCNC(=O)COCCOCCNC(=O)COCCOCCNC(=O)CC[C@H](NC(=O)CCCCCCCCCCCCCCCCC(=O)O)C(=O)O)C(=O)N[C@@H](C)C(=O)N[C@@H](CCC(N)=O)C(=O)NC(C)(C)C(=O)N[C@@H](CC(=O)O)C(=O)N[C@@H](Cc1ccccc1)C(=O)N[C@H](C(=O)N[C@@H](CC(N)=O)C(=O)N[C@@H](Cc1ccncc1)C(=O)N[C@@H](CC(C)C)C(=O)N[C@@H](CC(C)C)C(=O)N[C@@H](C)C(=O)N[C@@H](CCC(N)=O)C(=O)NCC(=O)N1CCC[C@H]1C(=O)N[C@@H](CO)C(=O)N[C@@H](CO)C(=O)NCC(=O)N[C@@H](C)C(=O)N1CCC[C@H]1C(=O)N1CCC[C@H]1C(=O)N1CCC[C@H]1C(=O)N[C@@H](CO)C(N)=O)C(C)C [Example 18] (H-Y[dA]EGTFISDYSILLDKK([AEEA-AEEA-γGlu-C18 diacid])AQ[Aib]DFVN[4Pal]LLAQGPSSGAPPPS-NH2) has a Ki of 463 nM.
Work on CC[C@H](C)[C@H](NC(=O)[C@H](CO)NC(=O)[C@H](Cc1ccc(O)cc1)NC(=O)[C@H](CC(=O)O)NC(=O)[C@H](CO)NC(=O)[C@@H](NC(=O)[C@H](Cc1ccccc1)NC(=O)[C@@H](NC(=O)CNC(=O)[C@H](CCC(=O)O)NC(=O)[C@@H](C)NC(=O)[C@@H](N)Cc1ccc(O)cc1)[C@@H](C)O)[C@@H](C)CC)C(=O)N[C@@H](CC(C)C)C(=O)N[C@@H](CC(C)C)C(=O)N[C@@H](CC(=O)O)C(=O)N[C@@H](CCCCN)C(=O)N[C@@H](CCCCNC(=O)COCCOCCNC(=O)COCCOCCNC(=O)CC[C@H](NC(=O)CCCCCCCCCCCCCCCCCCC(=O)O)C(=O)O)C(=O)N[C@@H](C)C(=O)N[C@@H](CCC(N)=O)C(=O)N[C@@H](CCC(N)=O)C(=O)N[C@@H](CC(=O)O)C(=O)N[C@@H](Cc1ccccc1)C(=O)N[C@H](C(=O)N[C@@H](CC(N)=O)C(=O)N[C@@H](Cc1c[nH]c2ccccc12)C(=O)N[C@@H](CC(C)C)C(=O)N[C@@H](CC(C)C)C(=O)N[C@@H](C)C(=O)N[C@@H](CCC(N)=O)C(=O)NCC(=O)N1CCC[C@H]1C(=O)N[C@@H](CO)C(=O)N[C@@H](CO)C(=O)NCC(=O)N[C@@H](C)C(=O)N1CCC[C@H]1C(=O)N1CCC[C@H]1C(=O)N1CCC[C@H]1C(=O)N[C@@H](CO)C(N)=O)C(C)C [Example 11] (H-Y[dA]EGTFISDYSILLDKK([AEEA-AEEA-γGlu-C20 diacid])AQQDFVNWLLAQGPSSGAPPPS-NH2) yielded a Ki of 163 nM.
Compound CC[C@H](C)[C@H](NC(=O)[C@H](CO)NC(=O)[C@H](Cc1ccc(O)cc1)NC(=O)[C@H](CC(=O)O)NC(=O)[C@H](CO)NC(=O)[C@@H](NC(=O)[C@H](Cc1ccccc1)NC(=O)[C@@H](NC(=O)CNC(=O)[C@H](CCC(=O)O)NC(=O)C(C)(C)NC(=O)[C@@H](N)Cc1ccc(O)cc1)[C@@H](C)O)[C@@H](C)CC)C(=O)N[C@@H](CC(C)C)C(=O)N[C@@H](CC(C)C)C(=O)N[C@@H](CC(=O)O)C(=O)N[C@@H](CCCCN)C(=O)N[C@@H](CCCCNC(=O)COCCOCCNC(=O)COCCOCCNC(=O)CC[C@H](NC(=O)CCCCCCCCCCCCCCCCC(=O)O)C(=O)O)C(=O)N[C@@H](Cc1c[nH]cn1)C(=O)N[C@@H](CCC(N)=O)C(=O)NC(C)(C)C(=O)N[C@@H](CC(=O)O)C(=O)N[C@@H](Cc1ccccc1)C(=O)N[C@H](C(=O)N[C@@H](CCC(=O)O)C(=O)N[C@@H](Cc1ccncc1)C(=O)N[C@@H](CC(C)C)C(=O)N[C@@H](CC(C)C)C(=O)N[C@@H](C)C(=O)NCC(=O)NCC(=O)N1CCC[C@H]1C(=O)N[C@@H](CO)C(=O)N[C@@H](CO)C(=O)NCC(=O)N[C@@H](C)C(=O)N1CCC[C@H]1C(=O)N1CCC[C@H]1C(=O)N1CCC[C@H]1C(=O)N[C@@H](CO)C(N)=O)C(C)C [Example 22] has a Ki of over 1380 nM.
Work on CC[C@H](C)[C@H](NC(=O)[C@H](CCCCN)NC(=O)[C@H](CC(=O)O)NC(=O)[C@H](CC(C)C)NC(=O)[C@H](CC(C)C)NC(=O)[C@@H](NC(=O)[C@H](CO)NC(=O)[C@H](Cc1ccc(O)cc1)NC(=O)[C@H](CC(=O)O)NC(=O)[C@H](CO)NC(=O)[C@@H](NC(=O)[C@H](Cc1ccccc1)NC(=O)[C@@H](NC(=O)CNC(=O)[C@H](CCC(=O)O)NC(=O)[C@@H](C)NC(=O)[C@@H](N)Cc1ccc(O)cc1)[C@@H](C)O)[C@@H](C)CC)[C@@H](C)CC)C(=O)N[C@@H](C)C(=O)N[C@@H](CCC(N)=O)C(=O)NC(C)(C)C(=O)N[C@@H](CC(=O)O)C(=O)N[C@@H](Cc1ccccc1)C(=O)N[C@H](C(=O)N[C@@H](CC(N)=O)C(=O)N[C@@H](Cc1c[nH]c2ccccc12)C(=O)N[C@@H](CCCCNC(=O)COCCOCCNC(=O)COCCOCCNC(=O)CC[C@H](NC(=O)CCCCCCCCCCCCCCCCC(=O)O)C(=O)O)C(=O)N[C@@H](CC(C)C)C(=O)N[C@@H](C)C(=O)N[C@@H](CCC(N)=O)C(=O)NCC(=O)N1CCC[C@H]1C(=O)N[C@@H](CO)C(=O)N[C@@H](CO)C(=O)NCC(=O)N[C@@H](C)C(=O)N1CCC[C@H]1C(=O)N1CCC[C@H]1C(=O)N1CCC[C@H]1C(=O)N[C@@H](CO)C(N)=O)C(C)C [Example 93] (H-Y[dA]EGTFISDYSILLDKIAQ[Aib]DFVNWK([AEEA-AEEA-γGlu-C18 diacid])LAQGPSSGAPPPS-NH2) yielded a Ki of over 959 nM.
